Assays:
[1] = test system: A549 cells; test: flow cytometer cell cycle analysis; assay type: cell-based, human; details: in comparison with non-treated samples, p<0.01
[2] = test system: A549 cells; test: cytoskeleton and nuclei staining, confocal microscope; assay type: cell-based, human; details: 24 hours, taxol 50 nM

CC(=O)O[C@H]1C(=O)[C@@]2(C)[C@H]([C@H](OC(=O)c3ccccc3)[C@]3(O)C[C@H](OC(=O)[C@H](O)[C@@H](NC(=O)c4ccccc4)c4ccccc4)C(C)=C1C3(C)C)[C@]1(OC(C)=O)CO[C@@H]1C[C@@H]2O [taxol]
G1/G0 cell population [1]: significantly reduced
mitosis of the cells ([2]; carrier 100 μg/mL): significantly enhancing mitosis
effect on microtubules, spindle and chromosomes ([2]; carrier or ND 100 μg/mL): induced polymerization of microtubules, inhibited formation of spindle, and inhibited separation of chromosomes
